Values of other authors in the CATMoS acute toxicity set (Mansouri et al. 2021).
“And” between values parts separate entries of the source, which are not always exact repeats. Equal values may be shown once.

Experiment: rat acute oral toxicity
Conditions: in vivo

Question: Which LD50 does the source give for `CC(=O)OC1CC2(O)C(CCC3(C)C(c4ccc(=O)oc4)CCC32O)C2(C)CCC(O)C=C12` (configuration not stated) here?
Answer: 4.2 mg/kg

Question: With `SCc1cnccn1` as the compound, how does the LD50 read?
Answer: 1700 mg/kg

Question: For `COc1cc(Br)c2oc(C3CCNCC3)cc2c1`, which LD50 is on record?
Answer: 310 mg/kg

Question: Which LD50 does the source give for `Cc1cc(O)ccc1[N+](=O)[O-]` here?
Answer: 1200 mg/kg

Question: For `CCCSP(=S)(OCC)Oc1ccc(Cl)cc1Cl` (configuration not stated), which LD50 is on record?
Answer: 875 mg/kg

Question: Which LD50 does the source give for `CN=C(O)O/N=C1/COCS1` here?
Answer: 49 mg/kg

Question: Which LD50 does the source give for `NCCNCCNCCO` here?
Answer: 4630 mg/kg

Question: With `CCOP(=S)(OCC)SCn1c(=O)oc2ccccc21` as the compound, how does the LD50 read?
Answer: 81 mg/kg

Question: With `CC(C)CCC(=O)O` as the compound, how does the LD50 read?
Answer: 2050 mg/kg

Question: With `CSc1ccccc1` as the compound, how does the LD50 read?
Answer: 891 mg/kg

Question: Which LD50 does the source give for `COc1ccc(C=Nc2c(C)n(C)n(-c3ccccc3)c2=O)cc1` here?
Answer: 10000 mg/kg

Question: Which LD50 does the source give for `C=Cc1ccc(CC)cn1` here?
Answer: 1230 mg/kg

Question: For `OC[C@@H](O)CN1CCN(c2ccccc2)CC1`, which LD50 is on record?
Answer: 887 mg/kg

Question: For `CC1CC(C)(O)CC(C(O)CC2CC(=O)NC(=O)C2)C1=O` (configuration not stated), which LD50 is on record?
Answer: 3 mg/kg

Question: With `CCCOC(N)=O` as the compound, how does the LD50 read?
Answer: 1880 mg/kg

Question: With `COc1cc2c3cc1Oc1cc(ccc1O)C[C@@H]1c4c(cc(OC)c(O)c4Oc4ccc(cc4)C[C@@H]3N(C)CC2)CC[N+]1(C)C` as the compound, how does the LD50 read?
Answer: 28 mg/kg

Question: With `O=C(O)c1c(Cl)ccc(Cl)c1O` as the compound, how does the LD50 read?
Answer: 1560 mg/kg

Question: With `Cl[Si](Cl)(Cl)c1ccccc1` as the compound, how does the LD50 read?
Answer: 2390 mg/kg

Question: With `C=CC(=O)NC(OC)C(=O)OC` (configuration not stated) as the compound, how does the LD50 read?
Answer: 2090 mg/kg

Question: For `CS(=O)(=O)OCCCN(CCCOS(C)(=O)=O)C1CCCCC1`, which LD50 is on record?
Answer: 375 mg/kg

Question: With `CC(C)Nc1nc(NC(C)C)nc(N(C)C#N)n1` as the compound, how does the LD50 read?
Answer: 1700 mg/kg

Question: Which LD50 does the source give for `CC(C)(C#N)Nc1nc(Cl)nc(NC2CC2)n1` here?
Answer: 290 mg/kg

Question: With `NCC1CCC=CO1` (configuration not stated) as the compound, how does the LD50 read?
Answer: 1000 mg/kg

Question: With `C=COCC(CC)CCCC` (configuration not stated) as the compound, how does the LD50 read?
Answer: 1350 mg/kg

Question: Which LD50 does the source give for `CC(=O)OC(C(=O)NC(N)=O)c1ccccc1` (configuration not stated) here?
Answer: 2100 mg/kg

Question: For `O=C(O)c1ccccc1C(=O)c1ccccc1`, which LD50 is on record?
Answer: 4600 mg/kg

Question: With `COC1=CC=C2[C@H]3Cc4ccc(OC)c5c4[C@@]2(CCN3C)[C@H]1O5` as the compound, how does the LD50 read?
Answer: 114 mg/kg

Question: For `CCC1(CC)C(=O)N=C(O)NC1=O`, which LD50 is on record?
Answer: 600 mg/kg

Question: Which LD50 does the source give for `NCCOCCO` here?
Answer: 3000 mg/kg

Question: Which LD50 does the source give for `COc1ccc2c(=O)c(C)c(-c3ccccc3)oc2c1CN(C)C` here?
Answer: 40 mg/kg and 14 mg/kg

Question: Which LD50 does the source give for `CCCCOC(=O)COc1cc(Cl)c(Cl)cc1Cl` here?
Answer: 481 mg/kg

Question: For `C=COCCOCCCC`, which LD50 is on record?
Answer: 3100 mg/kg

Question: With `C=CCNP(=O)(OC=C(Cl)Cl)OCCCl` (configuration not stated) as the compound, how does the LD50 read?
Answer: 25 mg/kg

Question: For `CN1C(=O)CCS(=O)(=O)C1c1ccc(Cl)cc1` (configuration not stated), which LD50 is on record?
Answer: 605 mg/kg

Question: With `C=Cc1ccc(C=O)o1` as the compound, how does the LD50 read?
Answer: 2080 mg/kg

Question: Which LD50 does the source give for `C=C[C@]1(C)C[C@@H](OC(=O)CSCCN(CC)CC)[C@]2(C)[C@H](C)CC[C@]3(CCC(=O)[C@H]32)[C@@H](C)[C@@H]1O` here?
Answer: 2230 mg/kg

Question: For `COP(=O)(OC)SCn1c(=O)oc2cc(Cl)cnc21`, which LD50 is on record?
Answer: 1180 mg/kg

Question: Which LD50 does the source give for `CC(=O)C(C)=Cc1ccccc1` here?
Answer: 4100 mg/kg

Question: Which LD50 does the source give for `CC(NN)c1ccccc1` (configuration not stated) here?
Answer: 458 mg/kg

Question: With `CC[Se][Se]CC` as the compound, how does the LD50 read?
Answer: 90 mg/kg

Question: With `CCCCN1CCCN=C1C(OCC)c1ccccc1` (configuration not stated) as the compound, how does the LD50 read?
Answer: 220 mg/kg

Question: For `CCCCOC(=O)CC#N`, which LD50 is on record?
Answer: 4180 mg/kg

Question: With `CCn1c2c(c3cc(N)ccc31)CCCC2` as the compound, how does the LD50 read?
Answer: 198 mg/kg

Question: With `Nc1ccc(N=Nc2c(S(=O)(=O)O)cc3cc(S(=O)(=O)O)c(N=Nc4ccccc4)c(O)c3c2N)cc1` as the compound, how does the LD50 read?
Answer: 3000 mg/kg

Question: For `O=C(O)c1cc(-n2c(-c3ccccc3)cc3c2CCc2ccccc2-3)ccc1O`, which LD50 is on record?
Answer: 450 mg/kg

Question: Which LD50 does the source give for `S=c1[nH]c2cc(Cl)ccc2o1` here?
Answer: 1000 mg/kg

Question: For `CN1CCCCC1C(c1ccccc1)c1cccc(O)c1` (configuration not stated), which LD50 is on record?
Answer: 1 mg/kg

Question: Which LD50 does the source give for `NC(=O)C1(N2CCCCC2)CCN(CCCN2c3ccccc3CCc3ccccc32)CC1` here?
Answer: 1020 mg/kg

Question: For `CCOC(C1=NCCCN1)c1ccccc1` (configuration not stated), which LD50 is on record?
Answer: 1540 mg/kg

Question: For `COC(=O)COc1ccc2ccccc2c1`, which LD50 is on record?
Answer: 2800 mg/kg

Question: With `COc1cc(C)nc(-n2nc(C)cc2OC)n1` as the compound, how does the LD50 read?
Answer: 445 mg/kg

Question: With `Fc1ccc(SCc2ccc(Cl)cc2)cc1` as the compound, how does the LD50 read?
Answer: 3000 mg/kg

Question: For `CC(C)(C(=O)c1cccnc1)c1cccnc1`, which LD50 is on record?
Answer: 521 mg/kg

Question: With `CCCCOC(=O)/C=C/C(=O)OCCCC` as the compound, how does the LD50 read?
Answer: 8530 mg/kg

Question: For `CCCCCCCCCCCCCCOC(=O)Cc1ccc(N(CCCl)CCCl)cc1`, which LD50 is on record?
Answer: 46 mg/kg

Question: For `COP(=S)(OC)SC(C(=O)OC(C)C)c1ccccc1` (configuration not stated), which LD50 is on record?
Answer: 205 mg/kg

Question: For `CCCSC(=O)Oc1c(C(C)CC)cc([N+](=O)[O-])cc1[N+](=O)[O-]` (configuration not stated), which LD50 is on record?
Answer: 584 mg/kg

Question: With `C#CCN(C)c1ccccc1OC(=O)NC` as the compound, how does the LD50 read?
Answer: 60 mg/kg

Question: Which LD50 does the source give for `CC(C)(COC(N)=O)COC(N)=O` here?
Answer: 2510 mg/kg

Question: With `COc1ccc(C(=C(c2ccccc2)[N+](=O)[O-])c2ccc(OCCN3CCCC3)cc2)cc1` as the compound, how does the LD50 read?
Answer: 1780 mg/kg

Question: Which LD50 does the source give for `C=CCc1ccc2c(c1)OCO2` here?
Answer: 1950 mg/kg

Question: Which LD50 does the source give for `O=C(O)Cc1ccc(-c2ccccc2F)cc1` here?
Answer: 638 mg/kg

Question: Which LD50 does the source give for `Cc1ccccc1OCC(O)CN1CC=CCC1` (configuration not stated) here?
Answer: 340 mg/kg

Question: With `CCCCNCCO` as the compound, how does the LD50 read?
Answer: 1150 mg/kg

Question: For `CCC(C)C(CN(C)C)c1ccc(Cl)cc1Cl` (configuration not stated), which LD50 is on record?
Answer: 567 mg/kg

Question: For `C=Cc1ccccc1Cl`, which LD50 is on record?
Answer: 5200 mg/kg

Question: Which LD50 does the source give for `CC(=O)Nc1ccncc1` here?
Answer: 446 mg/kg

Question: For `O=C1C(Cl)C2(Cl)C3C(Cl)OC(Cl)C3C1(Cl)C2(Cl)Cl` (configuration not stated), which LD50 is on record?
Answer: 7 mg/kg

Question: For `CC/C(=C(/CC)c1ccc(OP(=O)(O)O)cc1)c1ccc(OP(=O)(O)O)cc1`, which LD50 is on record?
Answer: 3000 mg/kg

Question: Which LD50 does the source give for `CCOC(=O)OC(=O)OCC` here?
Answer: 850 mg/kg

Question: With `Cc1cc(Br)ccc1-n1c(C)nc2ccccc2c1=O` as the compound, how does the LD50 read?
Answer: 240 mg/kg

Question: With `O=C(O)[C@H]1/C(=C/CO)O[C@@H]2CC(=O)N21` as the compound, how does the LD50 read?
Answer: 7940 mg/kg
